Measurements taken from patent US20170368082A1, “FORMULATIONS OF BRINCIDOFOVIR” (priority 2016, published 2017).

Assay: Tissue distribution by quantitative whole-body autoradiography (QWBA)
Format: in vivo, male Sprague Dawley and Long-Evans rats
Conditions: for Concentration of radioactivity: SD rat, 15 mg/kg IV
Description: The study utilized 4 groups of male SD rats (albino), and 3 groups of male LE rats (pigmented); a total of 39 rats. All animals were obtained from Hilltop Lab Animals, Inc. (Scottdale, Pa.). […] Rats in Group 5 were administered a single 2-h IV infusion of [^14C]brincidofovir at a target dose of 2 mg/kg. […] Three dosing formulations (one for high dose IV, one for low dose IV, and one for PO dose) were prepared at QPS on the day of dosing. The IV formulation for Groups 1, 2, 3, and 4 contained a vehicle of 10 mM sodium phosphate buffer in 5% dextrose solution at pH 8.0(±0.1).
Each animal, at their respective termination time points, was euthanized for QWBA analysis immediately after blood collection. One rat per time point per Group was euthanized as listed below.
The blood samples were maintained on wet ice (approximately 4° C.) and then centrifuged to obtain plasma within 1 h of the blood collection time. Centrifuge settings were recorded in the study notebook. Duplicate aliquots of plasma (0.050 mL) were analyzed for radioactivity using direct counting by LSC, and residual plasma was stored at approximately −70° C. and was saved for possible future analysis under a separate study protocol. Residual red blood cells were discarded as radioactive waste.
The pinna, distal limbs, hair, and tail were removed from each frozen carcass and each frozen carcass was embedded in an aqueous suspension of approximately 2% (w/v) carboxymethylcellulose and frozen into a block. The blocks were stored at approximately −20° C. prior to sectioning. Each blocked carcass was mounted on the object stage of a cryomicrotome (Leica CM3600 Cryomacrocut, Nussloch, Germany and Vibratome 9800, St. Louis, Mo.) maintained at approximately −20° C. and internal standards (3), which were plasma fortified with [^14C]-glucose at one concentration (approximately 0.05 μCi/mL), were placed into the frozen blocks, prior to sectioning, and were used for section thickness quality control. A number of whole-body sections (approximately 40 μm thick) were taken in the sagittal plane at various levels of interest using a whole-body cryomicrotome set at −20° C. Sagittal sections (20-50 μm thick) of frozen carcasses were exposed to phosphor imaging plates. Regions of images in tissues were converted to concentrations using standards. All of the major tissues, organs, and biological fluids were represented.
Tissue concentration data was determined for the following tissues and/or contents: adipose (brown and white), adrenal gland, bile (in duct), blood (cardiac), bone, bone marrow, brain (cerebrum, cerebellum, medulla), cecum (and contents), large intestine (and contents), epididymis, esophagus, eye (uvea and lens), Harderian gland, heart, kidney (cortex and medulla), liver, lung, lymph node, pancreas, pituitary gland, prostate gland, salivary gland, seminal vesicles, skeletal muscle, skin (pigmented and non-pigmented), small intestine (and contents), stomach (gastric mucosa and contents), spleen, spinal cord, testis, thymus, thyroid, and urinary bladder (and contents).
The imaging plate and sections were placed in light-tight exposure cassettes, in a copper-lined lead safe, for a 4-day exposure at room temperature. […] Quantification was performed by image densitometry using MCD image analysis software (v. 7.0, Interfocus Imaging Ltd) and a standard curve constructed from the integrated response [i.e., Molecular Dynamics Counts per square millimeter (MDC/mm^2)] and the nominal concentrations of the ^14C-calibration standards. The concentrations of radioactivity were expressed as the μg equivalents of [^14C]brincidofovir per gram sample (μg equiv/g). A lower limit of quantification (LLOQ) was applied to the data (See section 6.7.4).
Tissue concentrations that fell below the LLOQ were identified as being below the quantification limit (BQL). Tissue areas that were not visualized on autoradiographic images were identified as no sample (NS) and reported as BQL.

SMILES: CCCCCCCCCCCCCCCCOCCCOP(=O)(O)CO[C@H](CO)Cn1ccc(N)nc1=O [[^14C]brincidofovir]
- Concentration at Tmax: kidney medulla (Group 6 SD, 15 mg/kg PO): 7.9 μg equiv/g
- Concentration at Tmax: liver (Group 6 SD, 15 mg/kg PO): 20.6 μg equiv/g
- Concentration at Tmax: small intestine (Group 6 SD, 15 mg/kg PO): 236.3 μg equiv/g
- Concentration at Tmax: stomach (Group 6 SD, 15 mg/kg PO): 11.2 μg equiv/g
- Concentration at Tmax: urinary bladder (Group 6 SD, 15 mg/kg PO): 17.3 μg equiv/g
- Residual concentration in small intestine at 168 h (Group 6 SD, 15 mg/kg PO): 2.7 μg equiv/g
- Highest observed concentration in blood (Group 6 SD, 15 mg/kg PO, 2 h): 0.200 μg equiv/g
- Urinary bladder contents (Group 7, 8 h): 110.9 μg equiv/g
- Concentration of radioactivity, Eye (lens) (Group 7 LE pigmented rats, oral 15 mg/kg, c2-c11 = 0.5, 1, 2, 4, 8, 24, 72, 96, 168, 840 h, LLOQ 0.034): BQL
- Concentration at Tmax: cecum (Group 7 LE, 15 mg/kg PO): 7.6 μg equiv/g
- Concentration at Tmax: kidney cortex (Group 7 LE, 15 mg/kg PO): 17.8 μg equiv/g
- Concentration at Tmax: kidney medulla (Group 7 LE, 15 mg/kg PO): 9.1 μg equiv/g
- Concentration at Tmax: large intestine (Group 7 LE, 15 mg/kg PO): 3.3 μg equiv/g
- Concentration at Tmax: liver (Group 7 LE, 15 mg/kg PO): 36.1 μg equiv/g
- Concentration at Tmax: small intestine (Group 7 LE, 15 mg/kg PO): 458.5 μg equiv/g
- Concentration at Tmax: stomach (Group 7 LE, 15 mg/kg PO): 12.0 μg equiv/g
- Concentration at Tmax: urinary bladder (Group 7 LE, 15 mg/kg PO): 3.7 μg equiv/g
- Highest observed concentration in blood (Group 7 LE, 15 mg/kg PO, 8 h): 1.1 μg equiv/g
- Concentration of radioactivity (Harderian Gland, 2 h): 2.081 μg equiv./g
- Concentration of radioactivity (Harderian Gland, 24 h): 1.278 μg equiv./g
- Concentration of radioactivity (Harderian Gland, 168 h): 0.954 μg equiv./g
- Concentration of radioactivity (Heart, 2 h): 2.540 μg equiv./g
- Concentration of radioactivity (Heart, 24 h): 0.408 μg equiv./g
- Concentration of radioactivity (Heart, 168 h): 0.057 μg equiv./g
- Radioactivity in brain and spinal cord relative to plasma concentration (IV administration): ~20%
- Tissue to plasma ratios (T/P) in liver, kidney and small intestine (IV and oral): > 30
- Small intestine tissue to plasma ratio (IV infusion, 15 mg/kg): 32
- Concentration of radioactivity (Kidney Cortex, 2 h): 106.513 μg equiv./g
- Concentration of radioactivity (Kidney Cortex, 24 h): 32.109 μg equiv./g
- Concentration of radioactivity (Kidney Cortex, 168 h): 0.474 μg equiv./g
- Concentration of radioactivity (Kidney Medulla, 2 h): 33.444 μg equiv./g
- Concentration of radioactivity (Kidney Medulla, 24 h): 4.271 μg equiv./g
- Concentration of radioactivity (Kidney Medulla, 168 h): 0.186 μg equiv./g
- Concentration of radioactivity (Liver, 2 h): 229.371 μg equiv./g
- Concentration of radioactivity (Liver, 24 h): 13.907 μg equiv./g
- Concentration of radioactivity (Liver, 168 h): 0.453 μg equiv./g
- Concentration of radioactivity (Lung, 2 h): 5.675 μg equiv./g
- Concentration of radioactivity (Lung, 24 h): 1.128 μg equiv./g
- Concentration of radioactivity (Lung, 168 h): 0.296 μg equiv./g
- Concentration of radioactivity (Lymph Node, 2 h): 4.055 μg equiv./g
- Concentration of radioactivity (Lymph Node, 24 h): 1.004 μg equiv./g
- Concentration of radioactivity (Lymph Node, 168 h): 0.247 μg equiv./g
- Concentration of radioactivity (Pancreas, 2 h): 1.974 μg equiv./g
- Concentration of radioactivity (Pancreas, 24 h): 0.557 μg equiv./g
- Concentration of radioactivity (Pancreas, 168 h): BQL (BQL = Value is below the LLOQ)
- Concentration of radioactivity (Pituitary Gland, 2 h): 2.793 μg equiv./g
- Concentration of radioactivity (Pituitary Gland, 24 h): 1.021 μg equiv./g
- Concentration of radioactivity (Pituitary Gland, 168 h): 0.257 μg equiv./g
- Concentration of radioactivity (Prostate Gland, 2 h): 2.033 μg equiv./g
- Concentration of radioactivity (Prostate Gland, 24 h): 0.254 μg equiv./g
- Concentration of radioactivity (Prostate Gland, 168 h): 0.051 μg equiv./g
- Concentration of radioactivity (Salivary Gland, 2 h): 2.049 μg equiv./g
- Concentration of radioactivity (Salivary Gland, 24 h): 0.395 μg equiv./g
- Concentration of radioactivity (Salivary Gland, 168 h): 0.047 μg equiv./g
- Concentration of radioactivity (Seminal Vesicles, 2 h): 1.809 μg equiv./g
- Concentration of radioactivity (Seminal Vesicles, 24 h): 1.636 μg equiv./g
- Concentration of radioactivity (Seminal Vesicles, 168 h): 0.817 μg equiv./g
- Concentration of radioactivity (Skeletal Muscle, 2 h): 0.868 μg equiv./g
- Concentration of radioactivity (Skeletal Muscle, 24 h): 0.099 μg equiv./g
- Concentration of radioactivity (Skeletal Muscle, 168 h): BQL (BQL = Value is below the LLOQ)
- Concentration of radioactivity (Skin (non-pigmented), 2 h): 2.277 μg equiv./g
- Concentration of radioactivity (Skin (non-pigmented), 24 h): 0.602 μg equiv./g
- Concentration of radioactivity (Skin (non-pigmented), 168 h): 0.121 μg equiv./g
- Concentration of radioactivity (Spinal Cord, 2 h): 0.437 μg equiv./g
- Concentration of radioactivity (Spinal Cord, 24 h): 0.079 μg equiv./g
- Concentration of radioactivity (Spinal Cord, 168 h): BQL (BQL = Value is below the LLOQ)
- Concentration of radioactivity (Spleen, 2 h): 4.536 μg equiv./g
- Concentration of radioactivity (Spleen, 24 h): 2.244 μg equiv./g
- Concentration of radioactivity (Spleen, 168 h): 0.694 μg equiv./g
- Concentration of radioactivity (Testis, 2 h): 1.647 μg equiv./g
- Concentration of radioactivity (Testis, 24 h): 0.436 μg equiv./g
- Concentration of radioactivity (Testis, 168 h): 0.078 μg equiv./g
- Concentration of radioactivity (Thymus, 2 h): 2.373 μg equiv./g
- Concentration of radioactivity (Thymus, 24 h): 0.556 μg equiv./g
- Concentration of radioactivity (Thymus, 168 h): 0.105 μg equiv./g
- Concentration of radioactivity (Thyroid, 2 h): 2.751 μg equiv./g
- Concentration of radioactivity (Thyroid, 24 h): 0.791 μg equiv./g
- Concentration of radioactivity (Thyroid, 168 h): 0.239 μg equiv./g
- Concentration of radioactivity (Urinary Bladder (contents), 2 h): 47.034 μg equiv./g
- Concentration of radioactivity (Urinary Bladder (contents), 24 h): 21.237 μg equiv./g
- Concentration of radioactivity (Urinary Bladder (contents), 168 h): 0.121 μg equiv./g
- Concentration of radioactivity (Urinary Bladder, 2 h): 35.978 μg equiv./g
- Concentration of radioactivity (Urinary Bladder, 24 h): 2.264 μg equiv./g
- Concentration of radioactivity (Urinary Bladder, 168 h): 0.132 μg equiv./g
- Radioactivity in brain and spinal cord relative to plasma concentration (oral administration): ~5%
- Small intestinal tissue to plasma ratio (T/P) (oral administration, 15 mg/kg): 428
- Residual concentration in small intestine at 168 h (pigmented LE rats, 15 mg/kg PO): 5.9 μg equiv/g
